Results taken from patent US20230084927A1, “GLUCOSE UPTAKE INHIBITORS AND USES THEREOF” (METABOMED LTD., priority 2019, published 2023).
Where two headings read alike, the source gives them in different places.

Key:
[1] = tested on: SDH-KO-HRAS cells (SDHB-deficient); assay: Cellular / differential toxicity assay (CellTiter-Glo, 3 days); assay type: cell-based, murine; conditions: toxicity, SDH-KO cells, 3 days, CellTiter-Glo, read-out: EC50 (uM) SDH-KO-HTAS-C17
In short: (§1)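 Isogenic SDHB-deficient (HRAS-transformed SDH-KO) and SDH-WT cells grown in DMEM-F12 with 1 mM glutamine and 3% FBS, plated with compound (10-point dilution from 10 uM to 0.0065 uM or lower) for 3 days at 37 °C, 5% CO2. Viability by CellTiter-Glo luminescence; EC50 calculated.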

SDH-WT cells = assay: as above; assay type: cell-based, murine; conditions: toxicity, SDH-WT cells, 3 days, CellTiter-Glo, read-out: EC50 (uM) SDH-WT
In short: as §1

`CC(C)CNc1ncnc2c1sc1nc3c(cc12)COC(C)(C)C3` [Compound 224] was tested, and the EC50 ([1]; Mus musculus, 72 h) was greater than 10 µM and the EC50 (SDH-WT cells; Mus musculus, 72 h) was greater than 10 µM.

In the case of `COc1ccc(CCNc2ncnc3c2sc2nc4c(cc23)CN(C)CC4)cc1F` [Compound 106, N-(3-Fluoro-4-methoxyphenethyl)-9-methyl-7,8,9,10-tetrahydropyrimido[4′,5′:4,5]-thieno[2,3-b][1,6]naphthyridin-4-amine], the EC50 ([1]; Mus musculus, 72 h) is reported as 3 to 10 µM and the EC50 (SDH-WT cells; Mus musculus, 72 h) is reported as 3 to 10 µM.

Compound `CCCc1nc(NCCc2ccc3[nH]cnc3c2)c2sc3nc4c(cc3c2n1)COC(C)(C)C4` [Compound 314] has an EC50 ([1]; Mus musculus, 72 h) of 3 to 10 µM and an EC50 (SDH-WT cells; Mus musculus, 72 h) of 3 to 10 µM.

`COCCOCCOCCOCCOCCOC(=O)c1c2c(nc3sc4c(NCCc5ccc6[nH]cnc6c5)ncnc4c13)CC(C)(C)OC2` [Compound 163] was tested, and the EC50 ([1]; Mus musculus, 72 h) was 1 to 3 µM and the EC50 (SDH-WT cells; Mus musculus, 72 h) was greater than 10 µM.

`COc1ccc(CCNc2ncnc3c2sc2nc4c(cc23)CC(C(=O)O)CC4)cc1F` (stereo not drawn) [Compound 209] gave an EC50 ([1]; Mus musculus, 72 h) greater than 10 µM and an EC50 (SDH-WT cells; Mus musculus, 72 h) greater than 10 µM.

With `CCN(CCO)c1ncnc2c1sc1nc3c(cc12)COC(C)(C)C3` [Compound 289] the EC50 ([1]; Mus musculus, 72 h) was 3 to 10 µM and the EC50 (SDH-WT cells; Mus musculus, 72 h) was greater than 10 µM.

Work on `COc1ccc(CCNc2ncnc3c2sc2nc(C=C(C)C)c(CCl)cc23)cc1F` [Compound 104] yielded an EC50 ([1]; Mus musculus, 72 h) of 1 to 3 µM and an EC50 (SDH-WT cells; Mus musculus, 72 h) of 3 to 10 µM.

`CCOC(=O)c1c2c(nc3sc4c(NCCc5ccc6[nH]cnc6c5)ncnc4c13)CC(C)(C)OC2` [Compound 170, Ethyl 4-((2-(1H-benzo[d]imidazol-5-yl)ethyl)amino)-8,8-dimethyl-8,10-dihydro-7H-pyrano[3″,4″:5′,6′]pyrido[3′,2′:4,5]thieno[3,2-d]pyrimidine-11-carboxylate] gave an EC50 ([1]; Mus musculus, 72 h) of less than 1 µM and an EC50 (SDH-WT cells; Mus musculus, 72 h) of less than 1 µM.

For `CC1(C)Cc2nc3sc4c(NCCc5ccc(OC(N)=O)cc5)ncnc4c3cc2CO1` [Compound 143], the EC50 ([1]; Mus musculus, 72 h) was less than 1 µM and the EC50 (SDH-WT cells; Mus musculus, 72 h) was greater than 10 µM.

Work on `COc1cc(CCNc2ncnc3c2sc2nc4c(cc23)COC(C)(C)C4)cc(OC)c1` [Compound 102] yielded an EC50 ([1]; Mus musculus, 72 h) of 3 to 10 µM and an EC50 (SDH-WT cells; Mus musculus, 72 h) greater than 10 µM.

Work on `CCCCNc1nc(C)nc2c1sc1nc3c(cc12)COC(C)(C)C3` [Compound 229] yielded an EC50 ([1]; Mus musculus, 72 h) of 3 to 10 µM and an EC50 (SDH-WT cells; Mus musculus, 72 h) greater than 10 µM.

`CCCCCCNc1ncnc2c1sc1nc3c(cc12)COC(C)(C)C3` [Compound 216] showed an EC50 ([1]; Mus musculus, 72 h) greater than 10 µM and an EC50 (SDH-WT cells; Mus musculus, 72 h) greater than 10 µM.

`CCCCNc1ncnc2c1sc1nc3c(cc12)COC(C)(C)C3` [Compound 217] was tested, and the EC50 [1] was 1 to 3 µM and the EC50 (SDH-WT cells) was 3 to 10 µM.

`CCN(CC)CCCNc1ncnc2c1sc1nc3c(cc12)COC(C)(C)C3` [Compound 287] was tested, and the EC50 ([1]; Mus musculus, 72 h) was greater than 10 µM and the EC50 (SDH-WT cells; Mus musculus, 72 h) was greater than 10 µM.

`COCCCNc1ncnc2c1sc1nc3c(cc12)COC(C)(C)C3` [Compound 281] was tested, and the EC50 ([1]; Mus musculus, 72 h) was 3 to 10 µM and the EC50 (SDH-WT cells; Mus musculus, 72 h) was greater than 10 µM.

Work on `CC1(C)Cc2nc3sc4c(NCCc5ccc(NC(=O)c6ccccc6)c([N+](=O)[O-])c5)ncnc4c3cc2CO1` [Compound 197] yielded an EC50 ([1]; Mus musculus, 72 h) of 1 to 3 µM and an EC50 (SDH-WT cells; Mus musculus, 72 h) of 3 to 10 µM.

`COc1cc(CCNc2ncnc3c2sc2nc4c(cc23)COC(C)(C)C4)ccc1F` [Compound 121] was tested, and the EC50 ([1]; Mus musculus, 72 h) was 3 to 10 µM and the EC50 (SDH-WT cells; Mus musculus, 72 h) was greater than 10 µM.

`CC1(C)Cc2nc3sc4c(NCCc5ccccn5)ncnc4c3cc2CO1` [Compound 133] gave an EC50 ([1]; Mus musculus, 72 h) of 3 to 10 µM and an EC50 (SDH-WT cells; Mus musculus, 72 h) greater than 10 µM.

`CC(=O)c1nc2cc(CCNc3ncnc4c3sc3nc5c(cc34)COC(C)(C)C5)ccc2[nH]1` [Compound 178] showed an EC50 ([1]; Mus musculus, 72 h) of less than 1 µM and an EC50 (SDH-WT cells; Mus musculus, 72 h) of 3 to 10 µM.

Compound `CC1(C)Cc2nc3sc4c(NCCc5ccc6[nH]cnc6c5)ncnc4c3c(-c3ccccc3)c2CO1` [Compound 206] has an EC50 ([1]; Mus musculus, 72 h) of less than 1 µM and an EC50 (SDH-WT cells; Mus musculus, 72 h) of less than 1 µM.

With `CC1(C)Cc2nc3sc4c(NCCc5cccc(C(=O)O)c5)ncnc4c3cc2CO1` [Compound 113] the EC50 ([1]; Mus musculus, 72 h) was 3 to 10 µM and the EC50 (SDH-WT cells; Mus musculus, 72 h) was less than 1 µM.

`COc1ccc(CCNC(=O)c2sc3nc4c(cc3c2NC(=O)C(F)(F)F)COC(C)(C)C4)cc1F` [Compound 207] gave an EC50 ([1]; Mus musculus, 72 h) of 3 to 10 µM and an EC50 (SDH-WT cells; Mus musculus, 72 h) of 1 to 3 µM.

`COc1ccc(CCN(C(C)=O)c2ncnc3c2sc2nc4c(cc23)COC(C)(C)C4)cc1F` [Compound 160] was tested, and the EC50 ([1]; Mus musculus, 72 h) was greater than 10 µM and the EC50 (SDH-WT cells; Mus musculus, 72 h) was greater than 10 µM.

With `CC(C)CCNc1ncnc2c1sc1nc3c(cc12)COC(C)(C)C3` [Compound 239] the EC50 ([1]; Mus musculus, 72 h) was greater than 10 µM and the EC50 (SDH-WT cells; Mus musculus, 72 h) was greater than 10 µM.
